Experimental data reported in US20120095055A1, “HEXAHYDROCYCLOPENTYL[f]INDAZOLE 5-HYDROXYMETHYL ETHANOLS AND DERIVATIVES THEREOF AS SELECTIVE GLUCOCORTICOID RECEPTOR MODULATORS” (Merck Sharp & Dohme, Corp., priority 2009, published 2012).

Molecular target: T1, human GR (Homo sapiens, UniProt P04150)
T1 construct: naturally expresses the human GR; endogenous in cells
T1 sequence (P04150 1-777): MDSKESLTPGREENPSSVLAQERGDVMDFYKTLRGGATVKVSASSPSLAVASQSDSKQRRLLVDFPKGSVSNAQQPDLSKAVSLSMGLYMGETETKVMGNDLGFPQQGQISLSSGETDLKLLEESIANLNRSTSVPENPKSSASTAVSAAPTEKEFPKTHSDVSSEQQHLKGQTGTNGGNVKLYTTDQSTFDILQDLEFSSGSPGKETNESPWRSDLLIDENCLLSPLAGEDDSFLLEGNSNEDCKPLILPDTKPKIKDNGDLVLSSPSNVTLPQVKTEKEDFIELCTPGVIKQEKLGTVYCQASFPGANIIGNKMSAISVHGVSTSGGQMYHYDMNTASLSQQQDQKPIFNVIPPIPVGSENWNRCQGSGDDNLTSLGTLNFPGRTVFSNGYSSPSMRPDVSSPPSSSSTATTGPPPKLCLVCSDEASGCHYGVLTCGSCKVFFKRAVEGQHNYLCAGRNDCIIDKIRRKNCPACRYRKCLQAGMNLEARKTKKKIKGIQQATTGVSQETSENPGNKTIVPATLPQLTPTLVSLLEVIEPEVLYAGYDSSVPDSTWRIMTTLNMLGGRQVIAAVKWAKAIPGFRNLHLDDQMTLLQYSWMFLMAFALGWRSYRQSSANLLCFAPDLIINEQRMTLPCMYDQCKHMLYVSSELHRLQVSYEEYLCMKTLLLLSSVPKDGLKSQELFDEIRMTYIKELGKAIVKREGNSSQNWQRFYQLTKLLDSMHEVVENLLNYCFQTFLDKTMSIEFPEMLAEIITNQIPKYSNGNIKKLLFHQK
Test: Transrepression Assay (GITAR), TNFα-β-lactamase reporter in U937 cells
Assay type: cell-based
Settings: for Emax: U-937, activity repressed by 100 nM dexamethasone set as 100%; for EC50: inflection point (IP), TNFα promoter β-lactamase reporter, PMA/LPS; for Transrepression U937 Cells GITAR Emax (%): activity repressed by 100 nM dexamethasone set as 100%
Description: This assay assesses the ability of test compounds to control transcription from the TNFα-β-lactamase reporter gene in U937 cells, a human myelomonocytic leukemia cell line that naturally expresses the human GR. The assay measures compound dependent-repression of the TNFa promoter linked to a reporter gene.
The human U937 cells that had been stablely transfected with the TNF-α promoter driving β-lactamase are used for this assay. U937 cells contain an endogenous glucocorticoid receptor (GR). Cells are maintained in RPMI 1640 Growth medium (Gibco Cat#11875-093) containing 25 mM HEPES, 10% FBS, 2 mM L-Glutamine, 1 mM Sodium pyruvate, 25 μg/ml Gentamicin (Gibco Cat#15710-064), 1:1000 2-Mercaptoethanol (Gibco Cat#21985-023) and 0.8 mg/ml G418 (Gibco Cat#10131-027). The density of the cells in the flask needs to be about 1×106-3×10^6/ml at the time of harvest. Usually, the cells are split to 1.2˜1.4×10^5/ml (1:10) 3 days prior to the assay. 50,000 cells/well are plated in 96 well black-walled plates the day of assay. Test compounds are added 10 μL/well, and cells are incubated at 37° C. for 30˜45 min. For assaying compounds, first dilute 1:10 in DMSO to make 1 mM, then further dilute 1:100 in medium to make 10× stock prior to adding to the cells. Add 50 ng/ml PMA (Sigma, cat# P8139) 10 μL/well to a final concentration 5 ng/ml, and 1 μg/ml LPS (Sigma, cat# L4130) 10 μL/well to a final concentration 100 ng/ml. Incubate cells at 37° C. overnight for ˜18 hr. PMA is stored frozen as 100 μg/ml stock in DMSO. Dilute 1:10 in DMSO for a working stock of 10 μg/ml and store at −20 C. For assaying, dilute the 10 μg/ml working stock 1:200 in medium to make a 10× solution (50 ng/ml). Store frozen LPS at 1 mg/ml in PBS, dilute 1:1000 in medium to make 10× (1 μg/ml) for the assay. Add 6× loading buffer (CCF2-AM) 20 μL/well, and incubate at room temperature for 70˜90 min. […] The activity repressed by 100 nM dexamethasone alone is set as 100% activity.

| Compound | Emax [%] | EC50 [nM] | Transrepression U937 Cells GITAR Emax (%) |
| --- | --- | --- | --- |
| C[C@]12Cc3cnn(-c4ccc(F)cc4)c3C=C1CC[C@@]2(CO)CC(O)c1ccccn1 (single isomer, unassigned) [Example 1a] | 93 | 5.6 |  |
| C[C@]12Cc3cnn(-c4ccc(F)cc4)c3C=C1CC[C@@]2(CO)CC(O)c1ccccn1 (single isomer, unassigned) [Example 1b] |  | 24 | 91.7 |
| C[C@]12Cc3cnn(-c4ccc(F)cc4)c3C=C1CC[C@@]2(CO)CC(O)c1cccc(C(F)(F)F)c1 (single isomer, unassigned) [Example 7a] | 95.3 | 87.6 |  |
| C[C@]12Cc3cnn(-c4ccc(F)cc4)c3C=C1CC[C@@]2(CO)CC1OC(=O)c2ccccc21 (single isomer, unassigned) [Example 12a] | 78.8 | 93.1 |  |
| C[C@]12Cc3cnn(-c4ccc(F)cc4)c3C=C1CC[C@@]2(CO)CC1OC(=O)c2ccccc21 (single isomer, unassigned) [Example 12b] |  | 34.9 | 93.0 |
| CC(C)C(O)C[C@]1(CO)CCC2=Cc3c(cnn3-c3ccc(F)cc3)C[C@@]21C (single isomer, unassigned) [Example 14a] | 82.2 | 1130 |  |
| CC(C)C(O)C[C@]1(CO)CCC2=Cc3c(cnn3-c3ccc(F)cc3)C[C@@]21C (single isomer, unassigned) [Example 14b] |  | 249 | 82.3 |
| C[C@]12Cc3cnn(-c4ccc(F)cc4)c3C=C1CC[C@@]2(CO)CC(O)C1CCCCC1 (single isomer, unassigned) [Example 18a, 1-cyclohexyl-2-[(4αS)-1-(4-fluorophenyl)-5-(hydroxymethyl)-4α-methyl-1,4,4α,5,6,7-hexahydrocyclopenta[f]indazol-5-yl]ethanol] | 93.1 | 7.9 |  |
| C[C@]12Cc3cnn(-c4ccc(F)cc4)c3C=C1CC[C@@]2(CO)CC(O)C1CCCCC1 (single isomer, unassigned) [Example 18b, 1-cyclohexyl-2-[(4αS)-1-(4-fluorophenyl)-5-(hydroxymethyl)-4α-methyl-1,4,4α,5,6,7-hexahydrocyclopenta[f]indazol-5-yl]ethanol] |  | 25.7 | 97.7 |
| C[C@]12Cc3cnn(-c4cccc(F)c4)c3C=C1CC[C@@]2(CO)CC(O)c1ccccn1 (single isomer, unassigned) [Example 19a] | 91.2 | 32.7 |  |
| C[C@]12Cc3cnn(-c4cccc(F)c4)c3C=C1CC[C@@]2(CO)CC(O)c1ccccn1 (single isomer, unassigned) [Example 19b] |  | 73.8 | 86.7 |
| C[C@]12Cc3cnn(-c4ccc(F)cc4)c3C=C1CC[C@@]2(CO)CC(O)C1CC1 (single isomer, unassigned) [Example 20a, 1-cyclopropyl-2-[(4αS)-1-(4-fluorophenyl)-5-(hydroxymethyl)-4α-methyl-1,4,4α,5,6,7-hexahydrocyclopenta[f]indazol-5-yl]ethanol] | 79.9 | 133 |  |
| C[C@]12Cc3cnn(-c4ccc(F)cc4)c3C=C1CC[C@@]2(CO)CC(O)C1CC1 (single isomer, unassigned) [Example 20b, 1-cyclopropyl-2-[(4αS)-1-(4-fluorophenyl)-5-(hydroxymethyl)-4α-methyl-1,4,4α,5,6,7-hexahydrocyclopenta[f]indazol-5-yl]ethanol] |  | 573 | 72.0 |
| COc1cccnc1C(O)C[C@]1(CO)CCC2=Cc3c(cnn3-c3ccc(F)cc3)C[C@@]21C (single isomer, unassigned) [Example 21a] | 85.4 | 101 |  |

Now from value to compound:

| Emax [%] | EC50 [nM] | Transrepression U937 Cells GITAR Emax (%) | Compound |
| --- | --- | --- | --- |
|  | 137 | 85.0 | Cc1ccc(C(O)C[C@]2(CO)CCC3=Cc4c(cnn4-c4ccc(F)cc4)C[C@@]32C)cc1 (single isomer, unassigned) [Example 2a] |
| 94.4 | 235 |  | Cc1ccc(C(O)C[C@]2(CO)CCC3=Cc4c(cnn4-c4ccc(F)cc4)C[C@@]32C)cc1 (single isomer, unassigned) [Example 2b] |
| 93.3 | 37.6 |  | C[C@]12Cc3cnn(-c4ccc(F)cc4)c3C=C1CC[C@@]2(CO)CC(O)c1ccccc1Cl (single isomer, unassigned) [Example 3a] |
|  | 6 | 99.6 | C[C@]12Cc3cnn(-c4ccc(F)cc4)c3C=C1CC[C@@]2(CO)CC(O)c1ccccc1Cl (single isomer, unassigned) [Example 3b] |
| 84.7 | 86.1 |  | Cc1cccc(C(O)C[C@]2(CO)CCC3=Cc4c(cnn4-c4ccc(F)cc4)C[C@@]32C)c1 (single isomer, unassigned) [Example 5a] |
|  | 29 | 91.8 | Cc1cccc(C(O)C[C@]2(CO)CCC3=Cc4c(cnn4-c4ccc(F)cc4)C[C@@]32C)c1 (single isomer, unassigned) [Example 5b] |
| 104 | 35.7 |  | C[C@]12Cc3cnn(-c4ccc(F)cc4)c3C=C1CC[C@@]2(CO)CC(O)c1cc(F)cc(Cl)c1 (single isomer, unassigned) [Example 6a] |
|  | 68.8 | 98.3 | C[C@]12Cc3cnn(-c4ccc(F)cc4)c3C=C1CC[C@@]2(CO)CC(O)c1cc(F)cc(Cl)c1 (single isomer, unassigned) [Example 6b] |
|  | 44.7 | 98.4 | C[C@]12Cc3cnn(-c4ccc(F)cc4)c3C=C1CC[C@@]2(CO)CC(O)c1cccc(C(F)(F)F)c1 (single isomer, unassigned) [Example 7b] |
| 89.2 | 16.5 |  | C[C@]12Cc3cnn(-c4ccc(F)cc4)c3C=C1CC[C@@]2(CO)CC(O)c1ncccc1F (single isomer, unassigned) [Example 10a] |
|  | 4 | 93.9 | C[C@]12Cc3cnn(-c4ccc(F)cc4)c3C=C1CC[C@@]2(CO)CC(O)c1ncccc1F (single isomer, unassigned) [Example 10b] |
| 91 | 3.9 |  | C[C@]12Cc3cnn(-c4ccc(F)cc4)c3C=C1CC[C@@]2(CO)CC(O)c1ccccc1 (single isomer, unassigned) [Example 13a] |
|  | 18 | 96.4 | C[C@]12Cc3cnn(-c4ccc(F)cc4)c3C=C1CC[C@@]2(CO)CC(O)c1ccccc1 (single isomer, unassigned) [Example 13b] |
| 87.7 | 56.3 |  | C[C@]12Cc3cnn(-c4ccc(F)cc4)c3C=C1CC[C@@]2(CO)CC(O)c1cccnc1 (single isomer, unassigned) [Example 15a] |
|  | 98.5 | 80.6 | C[C@]12Cc3cnn(-c4ccc(F)cc4)c3C=C1CC[C@@]2(CO)CC(O)c1cccnc1 (single isomer, unassigned) [Example 15b] |
| 86.1 | 75.3 |  | C[C@]12Cc3cnn(-c4ccc(F)cc4)c3C=C1CC[C@@]2(CO)CC(O)c1ccncc1 (single isomer, unassigned) [Example 17a] |
|  | 59.7 | 83.3 | C[C@]12Cc3cnn(-c4ccc(F)cc4)c3C=C1CC[C@@]2(CO)CC(O)c1ccncc1 (single isomer, unassigned) [Example 17b] |
